Data on 28 molecules can be found in PubChem BioAssay AID743317 (Broad Institute, 2014).

Inconclusive results are not listed. Active and inactive are the calls of the source.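 How the source made its calls: active means fitted curve reaches 40% activation at or below the top valid dose, and every replicate test is called active; inconclusive means replicate tests disagree, some active and some inactive; inactive means all replicate tests inactive, including activity in the wrong direction.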

In one experiment the target is Endoplasmic reticulum aminopeptidase 1 (Homo sapiens) (UniProt Q9NZ08). Put plainly: ERAP1 aminopeptidase activity change, dose response, biochemical, fluorescence, cherry-pick (AID 743317). Particulars: ERAP1 enzyme, Leu-AMC fluorescence, 60 min.
Endoplasmic reticulum aminopeptidase 1 (Homo sapiens), sequence (Q9NZ08 whole entry, looked up): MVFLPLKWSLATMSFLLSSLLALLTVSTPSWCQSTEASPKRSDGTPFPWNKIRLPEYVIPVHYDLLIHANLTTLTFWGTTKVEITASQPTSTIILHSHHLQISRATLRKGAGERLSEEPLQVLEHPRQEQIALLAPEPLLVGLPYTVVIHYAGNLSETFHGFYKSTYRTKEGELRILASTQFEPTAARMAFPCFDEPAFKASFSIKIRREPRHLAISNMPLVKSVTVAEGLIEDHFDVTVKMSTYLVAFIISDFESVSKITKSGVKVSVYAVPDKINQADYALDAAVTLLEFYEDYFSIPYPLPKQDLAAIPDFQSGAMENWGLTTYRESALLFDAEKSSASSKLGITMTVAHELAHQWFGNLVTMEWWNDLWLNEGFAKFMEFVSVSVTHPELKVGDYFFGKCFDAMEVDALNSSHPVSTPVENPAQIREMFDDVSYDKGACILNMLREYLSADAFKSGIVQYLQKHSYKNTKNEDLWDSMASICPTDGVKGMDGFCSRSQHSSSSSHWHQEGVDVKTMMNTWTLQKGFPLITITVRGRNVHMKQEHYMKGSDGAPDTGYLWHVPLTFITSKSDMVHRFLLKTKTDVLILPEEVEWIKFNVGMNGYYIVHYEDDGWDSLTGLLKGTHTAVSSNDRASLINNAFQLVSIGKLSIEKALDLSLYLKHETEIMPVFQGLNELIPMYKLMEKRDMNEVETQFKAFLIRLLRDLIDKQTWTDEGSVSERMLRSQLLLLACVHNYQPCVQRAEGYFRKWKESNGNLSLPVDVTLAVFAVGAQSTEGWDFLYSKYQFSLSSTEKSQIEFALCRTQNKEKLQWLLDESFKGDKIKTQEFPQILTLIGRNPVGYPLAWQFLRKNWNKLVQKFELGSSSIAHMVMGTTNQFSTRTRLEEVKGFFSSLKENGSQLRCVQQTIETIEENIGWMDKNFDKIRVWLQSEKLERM
Consider `C[C@@H]1CCCCO[C@H](CN(C)Cc2ccc(C(=O)O)cc2)[C@H](C)CN([C@@H](C)CO)C(=O)c2cc(NC(=O)Nc3ccc(C(F)(F)F)cc3)ccc2O1`, for which the AC40 is 0.0919 µM. Same read-out and setting: then `COc1ccc(NC(=O)Nc2cccc3c2O[C@H](CN(C)Cc2ccc(C(=O)O)cc2)[C@H](C)CN([C@H](C)CO)C3=O)cc1`, with 5.25 µM.

For the molecule `COc1cc2cc(C(=O)N3CCN(Cc4ccc5c(c4)OCO5)CC3)c(=O)oc2cc1OC`, the AC40 was 4.58 µM.

Take `Cc1noc(C)c1S(=O)(=O)N(C)C[C@@H]1OCCCC[C@@H](C)Oc2ccc(NS(=O)(=O)c3cccs3)cc2C(=O)N([C@@H](C)CO)C[C@@H]1C`: the AC40 was less than 0.08 µM. For `O=C(C[C@H]1CC[C@@H]2[C@H](COC[C@@H](O)CN2C(=O)Nc2cccc(Cl)c2)O1)N1CCCCC1`, the AC40 is 0.812 µM.

`C[C@@H]1CN([C@H](C)CO)C(=O)c2cc(NC(=O)Nc3ccc(F)cc3)ccc2O[C@H]1CN(C)Cc1ccc(C(=O)O)cc1`: the AC40 is 0.484 µM. Still for that read-out and setting: then `COc1ccc(NC(=O)Nc2ccc3c(c2)C(=O)N([C@@H](C)CO)C[C@@H](C)[C@H](CN(C)Cc2ccc(C(=O)O)cc2)OCCCC[C@H](C)O3)cc1`, with 3.74 µM; and `C[C@H]1CN([C@@H](C)CO)C(=O)c2cccc(NC(=O)Nc3ccc(C(F)(F)F)cc3)c2O[C@@H]1CN(C)C`, with 1.41 µM. The same measure, in the same setting: then `C[C@@H]1CCCCO[C@@H](CN(C)C(=O)CCC(F)(F)F)[C@@H](C)CN([C@@H](C)CO)C(=O)c2cc(NS(=O)(=O)c3ccc(Cl)cc3)ccc2O1`, with 0.191 µM.

Regarding `C[C@H](CO)N1C[C@H](C)[C@H](CN(C)CC2CCCCC2)Oc2c(NC(=O)Nc3ccc(C(F)(F)F)cc3)cccc2C1=O`, the AC40 is 0.565 µM.

Consider `CCCN(C)C[C@@H]1OCCCC[C@H](C)Oc2ccc(NC(=O)Nc3ccc(F)cc3)cc2C(=O)N([C@H](C)CO)C[C@@H]1C`, for which the AC40 is 4.37 µM. As for `C[C@@H]1CCCCO[C@@H](CN(C)C)[C@@H](C)CN([C@H](C)CO)C(=O)c2cc(NS(=O)(=O)c3ccc(Cl)cc3)ccc2O1`, the AC40 was 0.381 µM. The same measure, in the same setting: then `CC1CN(Cc2cc(=O)oc3cc(O)c(Cl)cc23)CC(C)O1` (stereo not drawn), with 3.4 µM. Same read-out and setting: then `CCN(CC)c1ccc2c(C)c(Cl)c(=O)oc2c1`, with 8.19 µM; and `CCCNC(=O)C[C@H]1CC[C@@H]2[C@H](COC[C@H](O)CN2C(=O)Nc2cccc(Cl)c2)O1`, with 3.41 µM; and `Cc1cc(=O)oc2cc(OCC(=O)N3CCN(C(C)c4ccccc4)CC3)c(Cl)cc12` (stereo not drawn), with 6.22 µM. Take `CNC[C@H]1Oc2c(NC(=O)Nc3ccc(C(F)(F)F)cc3)cccc2C(=O)N([C@@H](C)CO)C[C@@H]1C`: the AC40 was 0.646 µM. Turning to `C[C@@H]1CCCCO[C@@H](CN(C)CC2CC2)[C@@H](C)CN([C@H](C)CO)C(=O)c2cc(NS(=O)(=O)c3ccc(Cl)cc3)ccc2O1`, the AC40 is 0.0973 µM. `Cc1ccc(-c2cc(C(=O)N3CCCC3)c3ccccc3n2)s1`: the AC40 is 6.45 µM.

Staying with this experiment, now noted: ERAP1 enzyme, Leu-AMC fluorescence, 60 min; at 5.6 µM (top of the series).
Turning to `CN1CCN(Cc2c(O)ccc3cc(-c4ccccn4)c(=O)oc23)CC1`, the activity increase (activation) is -103% (inactive).

Consider `O=c1ccc2cc(OC3O[C@H](CO)[C@@H](O)[C@H](O)[C@H]3O)c(O)cc2o1` (stereo partly drawn), for which the activity increase (activation) is -95.4% (inactive).

The experiment is the same for the next values; noted with them: ERAP1 enzyme, Leu-AMC fluorescence, 60 min; at 11 µM (top of the series).
Consider `O=c1oc2c(CN3CCN(CCO)CC3)c(O)ccc2cc1-c1ccccn1`, for which the activity increase (activation) is -80.1% (inactive). Same read-out and setting: then `O=C(CSc1cn[nH]n1)Nc1cccc(C(=O)O)c1`, with -63.3% (inactive); and `CC(C)(C)c1cc(N2CCOCC2)n2ncc(-c3ccccc3)c2n1`, with -42% (inactive).

On to `Cc1c(C)c2ccc(O)c(CN3CCCC3)c2oc1=O`, for which the activity increase (activation) was -57% (inactive). Same read-out and setting: then `CCN(CCCl)c1cc(CN(C)C)cc(NC(=O)c2ccc(C(=O)Nc3cc(CN(C)C)cc(N(CC)CCCl)c3)cc2)c1`, with -76% (inactive); and `Cc1c(-c2ccccc2)c(=O)oc2cc(O)ccc12`, with -87.3% (inactive); and `Cc1cc(=O)oc2c(CN3CCCC3)c(O)c(Cl)cc12`, with -73.8% (inactive).
